Assays:
Format in all cases: cell-based, mouse
ES cells [1] = assay: ES cell proliferation rate / doubling time under treatment
Procedure: If grown in galactose as the sole carbon source, a sub-population of cells need to engage in active oxidative phosphorylation to convert galactose to glucose. In one embodiment, ES cells are selected in galactose-containing culture medium for an incubation period of about four days.
(§1) In order to establish the relationship between ES cell JC-1 fluorescence, respiration and differentiation permissiveness, cells may be grown under hypoxic (<2% oxygen) or normnoxic conditions and assayed for JC-1 red/green ratio, oxygen consumption and lactate secretion, proliferation rate, ES cell self-renewal (STAT3 activity), and differentiation permissiveness by chimeric assays. ES cells with high mitochondrial membrane potential (as shown by high JC-1 red/green ratio) display low differentiation permissiveness, while those with low mitochondrial membrane potential (JC-1 green) display high differentiation permissiveness. […] ES cells on galactose also consume about 50% more oxygen than those sustained on glucose. ES cell proliferation rates for control and hypoxic cells (both with and without LIF) may be similar. […] STAT3 activity may be similar for normoxic and hypoxic cells.

ES cells [2] = assay: JC-1 fluorescence sensitivity to MDR inhibitors (JC-1 staining and flow cytometry); conditions: CsA 20 μM, verapamil 200 μM, reserpine 10 μM
Procedure: ES cells were maintained in ES cell media consisting of DMEM (no pyruvate, high glucose) (Gibco-BRL), 15% fetal calf serum (FCS) (Hyclone), and supplements (as described in Robertson, E. J. (1987) IRL Press Limited, Oxford, page 71-112). Supplemental Leukemia Inhibitory Factor (LIF) (1:1000 dilution) was prepared by transfecting COS-7 cells (ATCC) with a LIF expression vector, pCAGGS-LIF, then collecting and testing the supernatant 48 hours later (as described in Smith, A. (1991) Journal of Tissue Culture Methods 13:89-94). Irradiated mouse embryonic fibroblasts (MEFs) were derived from d13 embryos for use as feeder cells (as described in Robertson (1987) (supra)). […]
For MDR inhibitor dose response assays, cells were trypsinized for 15 minutes, quenched with ES cell media, triturated to a single cell suspension, and centrifuged at 1000 rpm for 5 minutes. […] Following centrifugation, cells were washed […] with cold HBSS, centrifuged and resuspended in cold PBS at the same concentration, placed on ice, and analyzed within 60 minutes (as described in Cossarizza et al. (1993) Biochem. Biophys. Res. Commun. 197:40-45). […]
Using the cationic fluorescent dye, JC-1, functionally distinct populations of ES cells were identified. […] Generally, less than 5% of the cells maintained a “JC-1 green only” fluorescence profile when treated with any of these inhibitors. […]

ES cells [3] = assay: Lactate secretion of ES cells; conditions: after 24 hours; normoxic and hypoxic ES cells about 80 mg/dl
Description: as §1

ES cells [4] = assay: Oxygen consumption of ES cells; conditions: ES cells on galactose
Description: as §1

ES cells [5] = assay: JC-1 red/green fluorescence (mitochondrial membrane potential) by flow analysis; conditions: galactose-containing culture medium, about four days
Procedure: In order to assess if cells are primarily using oxidative phosphorylation or glycolysis, mitochondrial inner-membrane potential can be assayed by JC-1 fluorescence (1 ug/ml) in ES cells grown in both the presence (undifferentiated) and absence (differentiation) of LIF.
The cells of Example 1 were stained with 1 μg/ml 5,5′,6,6′-tetrachloro-1,1′,3,3′-tetraethyl-benzimidazolylcarbocyanine iodide (JC-1, Molecular Probes, Eugene, Oreg.) and flow cytometry was performed using a FACSCalibur flow cytometer (Becton Dickinson, San Jose, Calif.). Cells were stained as above and sorted using a FACSVantage SE cell sorter (Becton Dickinson).

O=CC[C@@H](O)[C@H](O)[C@H](O)CO [2-dG, 2-deoxy glucose]
reduction of proliferation rate (ES cells [1]; 2-deoxy glucose 0.5 mM): ≤ 3 fold

COC(=O)[C@H]1[C@H]2C[C@@H]3c4[nH]c5cc(OC)ccc5c4CCN3C[C@H]2C[C@@H](OC(=O)c2cc(OC)c(OC)c(OC)c2)[C@@H]1OC [reserpine]
shift of JC-1 fluorescence on addition of inhibitor (ES cells [2]): dramatic shift of the majority of cells towards red fluorescence

COc1ccc(CCN(C)CCCC(C#N)(c2ccc(OC)c(OC)c2)C(C)C)cc1OC (stereo not drawn) [verapamil]
shift of JC-1 fluorescence on addition of inhibitor (ES cells [2]): dramatic shift of the majority of cells towards red fluorescence

CC[C@H]1/C=C/C=C/C[C@@H](C)[C@H](O)[C@@](C)(O)C(=O)[C@@H](C)[C@H](O)[C@@H](C)C(=O)[C@@H](C)[C@H](O)[C@@H](C)/C=C/C(=O)O[C@@H]2[C@H](C)[C@H](CC1)O[C@]1(CC[C@H](C)[C@H](C[C@@H](C)O)O1)[C@H]2C [oligomycin]
effect on proliferation rates (ES cells [1]; oligomycin 3 μM or FCCP+ oligomycin): dramatically reduces proliferation rates

O=C[C@H](O)[C@@H](O)[C@@H](O)[C@H](O)CO [galactose]
lactate secretion (ES cells [3]): < 10 mg/dL | increase of doubling time (ES cells [1]; galactose-containing culture medium, about four days): about 25% | doubling time (ES cells [1]; galactose-containing culture medium, about four days, 16 hours under standard conditions): 20 h | oxygen consumption, more than cells sustained on glucose (ES cells [4]): about 50% | sub-population of ES cells showing JC-1 red fluorescence (ES cells [5]): slightly increased

Reference: patent US20060057657A1, “Stem cell selection and differentiation” (Oregon Health & Science University Technology & Research …, priority 2002, published 2006)
